Reference: US20260176283A1, “IONIZABLE LIPIDS WITH LINEAR HEAD GROUPS” (Beam Therapeutics Inc., priority 2023, published 2026)
Values joined by “and” are separate entries in the source; they are usually repeats but may differ in a detail not shown here. Equal values may be shown once.

Experiments:
[1] = LNP characterization of base editor LNP preparations (DLS diameter, PDI, encapsulation efficiency); format: physicochemical
Protocol: (§1) Lipid nanoparticle components are dissolved in 100% ethanol at specified lipid component molar ratios. mRNA encoding an adenine base editor and a chemically-modified sgRNA is dissolved at a mass ratio of 1:1 in 10 mM citrate, 100 mM NaCl, pH 4.0, resulting in a concentration of NA cargo of approximately 0.22 mg/mL. LNP preparations are formulated with molar ratios of either 50% Ionizable Lipid: 38.5% Cholesterol: 1.5% PEG2000-DMG: 10% DSPC or 47.5% Ionizable Lipid: 40% Cholesterol: 2.5% PEG2000-DMG: 10% DSPC both at a total lipid to NA molar ratio of 6.
(§2) LNP preparations are formed by microfluidic mixing of the lipid and NA solutions using a Precision Nanosystems NanoAssemblr Ignite Instrument, according to the manufacturer's protocol. A 3:1 ratio of aqueous to organic solvent is maintained during mixing using differential flow rates. After mixing, LNP preparations are collected, diluted in PBS (approximately 2:1 v/v), and further buffer exchange is conducted using dialysis in PBS at 4° C. for 8 to 24 hours against a 20 kDa filter. After this initial dialysis, each individual LNP preparation is characterized via dynamic light scattering (DLS) to measure size and polydispersity. pKa of a subpopulation of LNP preparations is measured via TNS assay. After dialysis, LNP preparations are sterile filtered using 0.22 micron sterile filter and stored at 4° C. for further use. In some embodiments, LNP preparations may be concentrated using 100 kDa Amicon filters per manufacturer's protocol.
DLS—LNP preparation hydrodynamic diameter and polydispersity index (PDI) is measured using high throughput dynamic light scattering (DLS) (DynaPro plate reader II, Wyatt). LNP preparations are diluted 1×PBS to an appropriate concentration and analyzed.
Concentration of NA is determined by Qubit microRNA kit (for siRNA) or HS RNA kit (for mRNA) per manufacturer's instructions. Encapsulation efficiency is determined by measuring unlysed and lysed LNPs.

ALAS1 target site = assay: In vivo base editing with ABE mRNA and sgRNA targeting ALAS1; design: species or system Balb/c mice; settings: for Liver Editing A->G (%): formulation ratio 50:38.5:1.5:10, liver, 4 days after dosing; for Quadrecept Editing A->G (%): formulation ratio 50:38.5:1.5:10, quadricep muscle
Protocol: as §1, §2
Male Balb/C mice aged approximately 8-12 weeks are used in the experiments described herein. Each mouse is temporarily restrained, and LNP preparations are administered IV via tail vein injection. Age-matched mice are also used to administer vehicle (1×PBS) via tail vein injection as a control. Four to six days post-dose, tissues including liver, spleen, heart and muscle are collected (only liver and muscle (quardracept) are reported). Genomic DNA is isolated and fragmented and adapter-ligated using the Nextera DNA Flex Library Prep Kit (Illumina) using the 96-well plate Nextera indexing primers (Illumina), according to the manufacturer's instructions. Library size and concentration is confirmed by Fragment Analyzer (Agilent) and sent to Novogene for whole genome sequencing using an Illumina HiSeq.
For base editing, mRNA encoding an adenine base editor (ABE) and a guide RNA (sgRNA) targeting ALAS1 at 1:1 (mass ratio) are coencapsulated in LNP preparations as described herein. LNP preparations are administrated into Balb/c mice through tail vein injections at concentrations ranging from 0.05 to 3.0 mg/kg total RNA. At 4 days after dosing, mice are euthanized and liver, spleen and bone barrow are harvested. Base editing is determined by performing targeted deep sequencing analysis at the ALAS1 target site using extracted genomic DNA.

[2] = LNP preparation characterization (encapsulation efficiency, DLS size and polydispersity), barcoded screen LNPs; format: physicochemical; settings: LNP 47.5% ionizable lipid: 40% cholesterol: 2.5% PEG-2000 DMG: 10% DPSC, N/P 4.5-6; for AVG PDI / AVG Z Dia (nm): DLS
Protocol: Lipid nanoparticle components were dissolved in 100% ethanol at specified lipid component molar ratios. Nucleic acid (NA) cargo was dissolved in 10 mM citrate, 100 mM NaCl, pH 4.0, resulting in a concentration of NA cargo of approximately 0.22 mg/mL. In some embodiments, NA cargos included both a functional NA and a reporter barcode mixed at mass ratios of 1:10 to 10:1 functional NA to barcode. As described herein, a NA can be a siRNA, an anti-sense, an expressing DNA, or mRNA.
LNP preparations were prepared with 47.5% Ionizable Lipid (e.g., a compound provided herein): 40% cholesterol: 2.5% PEG-2000 DMG: 10% DPSC and an N/P ratio range of 4.5-6. LNP preparations were formed by microfluidic mixing of the lipid and NA solutions using Precision Nanosystems NanoAssemblr Spark or Benchtop series Instruments, according to the manufacturer's protocol.
A ratio of aqueous to organic solvent of approximately 2:1 or 3:1 was maintained during mixing using differential flow rates. After mixing, LNP preparations were collected, diluted in phosphate buffer saline (PBS) or Tris-buffered saline (TBS) (approximately 1:1 v/v). Further buffer exchange was conducted using dialysis in PBS or TBS at 4° C. for 4 to 24 hours against a 20 kDa filter. After this initial dialysis, each individual LNP preparation may be characterized via dynamic light scattering (DLS) to measure the size (e.g., diameter) and polydispersity. LNP preparations falling within specific diameter and polydispersity ranges were pooled, and further dialyzed against PBS or TBS at 4° C. for 1 to 4 hours against a 100 kDa dialysis cassette. After the second dialysis, LNP preparations were sterile filtered using 0.22 μm filter and stored at 4° C. for further use.

[3] = Table D LNPs, formulation ratio 50:38.5:1.5:10, ABE mRNA/ALAS1 sgRNA
[4] = Table C LNPs, formulation ratio 47.5:40:2.5:10, ABE mRNA/ALAS1 sgRNA

Row | SMILES | Diameter (nm) [1, 3] | EE (%) [1, 3] | PDI (%) [1, 3] | Quadrecept Editing A->G (%) (ALAS1 target site; dose 3 MPK IV) | Diameter (nm) [1, 4] | EE (%) [1, 4] | PDI (%) [1, 4] | AVG EE(%) [2] | AVG PDI [2] | AVG Z Dia (nm) [2] | also measured
1 | C=CCCCCCC(CCCCCC=C)OC(=O)CCCCC(=O)OCC(COC(=O)CCCCC(=O)OC(CCCCCC=C)CCCCCC=C)COC(=O)CCCN1CCCC1 [Compound (11), 1-[2-({[6-Oxo-6-(pentadeca-1,14-dien-8-yloxy)hexanoyl]oxy}methyl)-3-{[4-(pyrrolidin-1-yl)butanoyl]oxy}propyl]6-pentadeca-1,14-dien-8-yl hexanedioate] | 83.2 nm | 74.33% | 18.7% | 0.11% |  |  |  |  |  |  | Liver Editing A->G (%) (ALAS1 target site; dose 3 MPK IV): 17.19%
2 | C=CCCCC(CCCC=C)COC(=O)CCCCC(=O)OCC(COC(=O)CCCCC(=O)OCC(CCCC=C)CCCC=C)COC(=O)CCCN1CCCC1 [Compound (19), 1-(2-{[(6-Oxo-6-{[2-(pent-4-en-1-yl)hept-6-en-1-yl]oxy}hexanoyl)oxy]methyl}-3-{[4-(pyrrolidin-1-yl)butanoyl]oxy}propyl) 6-[2-(pent-4-en-1-yl)hept-6-en-1-yl] hexanedioate] |  |  |  |  | 123 nm | 57.3% | 9.9% | 98.2% | 0.08 | 130.75 nm | 
3 | CC/C=C\CCCC(CCC/C=C\CC)COC(=O)CCCCC(=O)OCC(COC(=O)CCCCC(=O)OCC(CCC/C=C\CC)CCC/C=C\CC)COC(=O)CCCN1CCCC1 [Compound (24), 1-(6Z)-2-[(4Z)-Hept-4-en-1-yl]non-6-en-1-yl6-(2-{[(6-{[(6Z)-2-[(4Z)-hept-4-en-1-yl]non-6-en-1-yl]oxy}-6-oxohexanoyl)oxy]methyl}-3-{[4-(pyrrolidin-1-yl)butanoyl]oxy}propyl) hexanedioate] |  |  |  |  |  |  |  | 90.2% | 0.13 | 117.63 nm | 
4 | O=C(CCCCC(=O)OC(CCCCCC(F)(F)F)CCCCCC(F)(F)F)OCC(COC(=O)CCCCC(=O)OC(CCCCCC(F)(F)F)CCCCCC(F)(F)F)COC(=O)CCCN1CCCC1 [Compound (20), 1-(1,1,1,13,13,13-Hexafluorotridecan-7-yl)6-{2-[({6-[(1,1,1,13,13,13-hexafluorotridecan-7-yl)oxy]-6-oxohexanoyl}oxy)methyl]-3-{[4-(pyrrolidin-1-yl)butanoyl]oxy}propyl} hexanedioate] |  |  |  |  | 153.73 nm | 25% | 8.2% |  |  |  | 
5 | C=CCCCCCC(CCCCCC=C)OC(=O)CCCCCC(=O)OCC(COC(=O)CCCCCC(=O)OC(CCCCCC=C)CCCCCC=C)COC(=O)CCCN1CCCC1 [Compound (9), 1-[2-({[7-Oxo-7-(pentadeca-1,14-dien-8-yloxy)heptanoyl]oxy}methyl)-3-{[4-(pyrrolidin-1-yl)butanoyl]oxy}propyl] 7-pentadeca-1,14-dien-8-yl heptanedioate] | 74.1 nm and 75.6 nm and 89.9 nm and 85.5 nm | 98.77% and 98.4% and 98.5% and 98.1% | 12.2% and 9.7% and 8.1% and 9.8% |  |  |  |  |  |  |  | Liver Editing A->G (%) (ALAS1 target site; dose 1.5 MPK IV): 90.8%; Quadrecept Editing A->G (%) (ALAS1 target site; dose 1.5 MPK IV): 8.22%
6 | CC/C=C\CCCC(CCC/C=C\CC)OC(=O)CCCCCCC(=O)OCC(COC(=O)CCCCCCC(=O)OC(CCC/C=C\CC)CCC/C=C\CC)COC(=O)CCCN1CCCC1 [Compound (13), 1-{2-[({8-Oxo-8-[(3Z,12Z)-pentadeca-3,12-dien-8-yloxy]octanoyl}oxy)methyl]-3-{[4-(pyrrolidin-1-yl)butanoyl]oxy}propyl} 8-(3Z,12Z)-pentadeca-3,12-dien-8-yl octanedioate] | 79.7 nm | 96.75% | 27.9% | 0.37% |  |  |  |  |  |  | 
7 | CC/C=C\CCCC(CCC/C=C\CC)OC(=O)CCCCCC(=O)OCC(COC(=O)CCCCCC(=O)OC(CCC/C=C\CC)CCC/C=C\CC)COC(=O)CCCN1CCCC1 [Compound (14), 1-{2-[({7-Oxo-7-[(3Z,12Z)-pentadeca-3,12-dien-8-yloxy]heptanoyl}oxy)methyl]-3-{[4-(pyrrolidin-1-yl)butanoyl]oxy}propyl} 7-(3Z,12Z)-pentadeca-3,12-dien-8-yl heptanedioate] | 74.2 nm and 87.2 nm and 88.8 nm and 111.4 nm and 90.2 nm and 83.6 nm | 98.94% and 98.27% and 98.68% and 98.67% and 97.86% and 97.95% | 11.6% and 9.6% and 11.5% and 8% and 11.4% and 10.2% |  |  |  |  |  |  |  | 
8 | C=CCCCC(CCCC=C)COC(=O)CCCCCCC(=O)OCC(COC(=O)CCCCCCC(=O)OCC(CCCC=C)CCCC=C)COC(=O)CCCN1CCCC1 [Compound (15), 1-(2-1[(8-oxo-8-{[2-(pent-4-en-1-yl)hept-6-en-1-yl]oxy}octanoyl)oxy]methyl}-3-{[4-(pyrrolidin-1-yl)butanoyl]oxy}propyl) 8-[2-(pent-4-en-1-yl)hept-6-en-1-yl] octanedioate] | 96.6 nm | 94.81% | 11.6% | 4.05% |  |  |  |  |  |  | 
9 | C=CCCCCCC(CCCCCC=C)OC(=O)CCCCCC(=O)OCCCC(CCCOC(=O)CCCCCC(=O)OC(CCCCCC=C)CCCCCC=C)OC(=O)CCCN1CCCC1 [Compound (22), O1-[7-[7-(1-hept-6-enyloct-7-enoxy)-7-oxo-heptanoyl]oxy-4-(4-pyrrolidin-1-ylbutanoyloxy)heptyl] O7-(1-hept-6-enyloct-7-enyl) heptanedioate] |  |  |  |  | 90.8 nm | 88.09% | 6.8% | 88.1% | 0.07 | 90.80 nm | 
